The IC50 is the point on the concentration scale where inhibition reaches its midpoint. What is called Ki is the equilibrium dissociation constant of an inhibitor or competing ligand from its target.

One test concerns the target Nitric oxide synthase 1 (Rattus norvegicus, UniProt P29476). The class given is tissue-based, Cerebellum. Further: in other assays of this panel Not Active means under 50% inhibition at 10 µM.
Test [1] can be described thus: DRUGMATRIX: Phosphodiesterase PDE4 enzyme inhibition (substrate: [3H]cAMP + cAMP). The conditions noted are these: u-937; Not Active = under 50% inhibition at 10 µM.
The target in test [2] is Receptor tyrosine-protein kinase erbB-2 (Homo sapiens, UniProt P04626). The test can be described thus: biochemical. The class given is cell-based, Insect cells. The conditions noted are these: insect cells.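 Further: inhibition of HER2 kinase enzyme activity, measured with Poly(Glu:Tyr) as the phosphorylation substrate; in other assays of this panel Not Active means under 50% inhibition at 10 µM.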
Test [3] concerns the target Vascular endothelial growth factor receptor 1 (Homo sapiens, UniProt P17948). The class given is cell-based. The conditions noted are these: huvec. Further: in other assays of this panel Not Active means under 50% inhibition at 10 µM.
A short description of test [4]: DRUGMATRIX: Imidazoline I2, Central radioligand binding (ligand: [3H] Idazoxan). The class given is cell membranes, Rattus norvegicus, Wistar, Cerebral cortex, Membrane. The conditions noted are these: Not Active = under 50% inhibition at 10 µM.
Test [5] addresses T1, Type-2 angiotensin II receptor (Homo sapiens, UniProt P50052).
T1 sequence (P50052 whole entry): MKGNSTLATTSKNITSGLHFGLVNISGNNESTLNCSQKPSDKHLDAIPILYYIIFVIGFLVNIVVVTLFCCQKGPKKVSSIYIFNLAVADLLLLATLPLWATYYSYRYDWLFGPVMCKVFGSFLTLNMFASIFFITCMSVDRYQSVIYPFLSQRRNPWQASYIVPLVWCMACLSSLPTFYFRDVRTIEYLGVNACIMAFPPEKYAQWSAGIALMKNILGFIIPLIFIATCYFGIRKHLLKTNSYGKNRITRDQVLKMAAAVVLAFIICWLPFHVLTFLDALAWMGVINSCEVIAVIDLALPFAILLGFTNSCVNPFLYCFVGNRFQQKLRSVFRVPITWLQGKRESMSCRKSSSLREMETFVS
The class given is cell-based. The conditions noted are these: cho-k1.

Test [6] can be described thus: DRUGMATRIX: Leukotriene, BLT (LTB4) radioligand binding (ligand: [3H]LTB4). The conditions noted are these: u-937, Not Active = under 50% inhibition at 10 µM. The class given is cell membranes, Membrane.

Sequence of Nitric oxide synthase 1 (P29476 whole entry): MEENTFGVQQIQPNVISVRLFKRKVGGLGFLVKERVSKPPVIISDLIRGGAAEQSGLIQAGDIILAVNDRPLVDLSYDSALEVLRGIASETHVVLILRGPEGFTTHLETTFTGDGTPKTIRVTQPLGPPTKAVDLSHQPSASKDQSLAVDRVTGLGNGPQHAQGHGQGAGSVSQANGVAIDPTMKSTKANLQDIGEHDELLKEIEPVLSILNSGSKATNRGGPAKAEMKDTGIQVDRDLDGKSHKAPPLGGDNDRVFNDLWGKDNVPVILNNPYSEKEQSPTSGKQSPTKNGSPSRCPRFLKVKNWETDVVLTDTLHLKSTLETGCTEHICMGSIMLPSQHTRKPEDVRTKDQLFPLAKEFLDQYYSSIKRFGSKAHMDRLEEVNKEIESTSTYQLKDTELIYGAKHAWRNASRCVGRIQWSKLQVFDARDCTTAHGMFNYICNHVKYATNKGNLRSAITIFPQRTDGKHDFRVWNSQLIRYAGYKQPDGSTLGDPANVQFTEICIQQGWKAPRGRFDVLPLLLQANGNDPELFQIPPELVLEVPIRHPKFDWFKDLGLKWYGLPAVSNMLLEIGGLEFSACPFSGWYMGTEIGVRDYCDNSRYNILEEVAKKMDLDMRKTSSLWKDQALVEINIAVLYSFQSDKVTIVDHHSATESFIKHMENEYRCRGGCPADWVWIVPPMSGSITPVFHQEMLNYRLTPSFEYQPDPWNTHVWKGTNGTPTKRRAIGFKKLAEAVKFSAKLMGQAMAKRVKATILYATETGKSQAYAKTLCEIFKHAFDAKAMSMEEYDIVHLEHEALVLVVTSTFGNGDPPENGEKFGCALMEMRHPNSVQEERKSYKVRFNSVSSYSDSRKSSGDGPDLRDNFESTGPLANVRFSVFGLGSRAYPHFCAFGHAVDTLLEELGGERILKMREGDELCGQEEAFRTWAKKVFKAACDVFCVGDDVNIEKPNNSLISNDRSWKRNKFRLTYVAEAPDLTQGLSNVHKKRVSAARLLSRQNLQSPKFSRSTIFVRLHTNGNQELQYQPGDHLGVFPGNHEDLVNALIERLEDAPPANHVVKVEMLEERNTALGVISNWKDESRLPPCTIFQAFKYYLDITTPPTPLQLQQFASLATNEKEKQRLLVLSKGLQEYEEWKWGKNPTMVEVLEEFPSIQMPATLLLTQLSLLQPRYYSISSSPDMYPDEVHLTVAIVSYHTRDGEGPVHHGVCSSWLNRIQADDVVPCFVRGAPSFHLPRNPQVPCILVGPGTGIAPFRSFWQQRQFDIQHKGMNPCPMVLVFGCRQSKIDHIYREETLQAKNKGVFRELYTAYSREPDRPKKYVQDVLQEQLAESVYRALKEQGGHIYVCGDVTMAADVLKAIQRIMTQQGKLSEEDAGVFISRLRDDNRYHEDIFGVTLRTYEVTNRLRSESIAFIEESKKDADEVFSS
Sequence of Vascular endothelial growth factor receptor 1 (P17948 whole entry): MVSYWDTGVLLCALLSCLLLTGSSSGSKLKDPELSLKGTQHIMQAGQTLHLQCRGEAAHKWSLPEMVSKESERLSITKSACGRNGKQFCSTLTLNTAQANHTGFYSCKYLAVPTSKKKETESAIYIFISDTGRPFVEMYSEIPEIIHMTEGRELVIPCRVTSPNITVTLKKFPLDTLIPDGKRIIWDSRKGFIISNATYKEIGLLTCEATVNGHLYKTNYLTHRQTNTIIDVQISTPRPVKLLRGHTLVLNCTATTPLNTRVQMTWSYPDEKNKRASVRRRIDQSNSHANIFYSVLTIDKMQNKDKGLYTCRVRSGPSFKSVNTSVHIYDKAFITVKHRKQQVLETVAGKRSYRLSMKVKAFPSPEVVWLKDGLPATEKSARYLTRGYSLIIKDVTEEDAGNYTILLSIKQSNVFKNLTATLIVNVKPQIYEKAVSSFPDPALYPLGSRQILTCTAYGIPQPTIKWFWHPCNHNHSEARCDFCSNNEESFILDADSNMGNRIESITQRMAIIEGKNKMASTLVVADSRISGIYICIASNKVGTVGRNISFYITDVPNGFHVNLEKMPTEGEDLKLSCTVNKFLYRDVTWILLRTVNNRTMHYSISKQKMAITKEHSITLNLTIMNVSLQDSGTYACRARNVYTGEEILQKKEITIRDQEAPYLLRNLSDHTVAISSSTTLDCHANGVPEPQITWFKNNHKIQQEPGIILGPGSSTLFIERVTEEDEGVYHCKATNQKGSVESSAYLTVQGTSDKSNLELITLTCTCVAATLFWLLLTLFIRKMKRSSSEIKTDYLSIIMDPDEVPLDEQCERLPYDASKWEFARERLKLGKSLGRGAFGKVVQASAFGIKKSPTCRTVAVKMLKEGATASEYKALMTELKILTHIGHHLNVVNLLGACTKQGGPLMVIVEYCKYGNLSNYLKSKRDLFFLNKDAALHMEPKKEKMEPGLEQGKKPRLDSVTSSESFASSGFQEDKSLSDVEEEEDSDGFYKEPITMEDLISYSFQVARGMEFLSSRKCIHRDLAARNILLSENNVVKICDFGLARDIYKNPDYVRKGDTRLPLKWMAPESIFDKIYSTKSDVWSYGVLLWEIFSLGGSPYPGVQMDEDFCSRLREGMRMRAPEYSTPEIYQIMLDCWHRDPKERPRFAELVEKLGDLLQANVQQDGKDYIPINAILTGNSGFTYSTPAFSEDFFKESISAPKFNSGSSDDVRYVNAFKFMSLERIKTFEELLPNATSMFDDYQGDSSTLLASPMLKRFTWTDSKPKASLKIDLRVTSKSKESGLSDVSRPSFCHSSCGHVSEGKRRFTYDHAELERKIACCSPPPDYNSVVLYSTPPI

With `O=c1ncn2nc(Sc3ccc(F)cc3F)ccc2c1-c1c(Cl)cccc1Cl` [NEFLAMAPIMOD], the IC50 result (against Nitric oxide synthase 1; in test [1]; in test [2]; in test [3]; in test [4]; in test [5]) was “Not Active” throughout. In addition, in test [6], the concentration for half-maximal inhibition (IC50) entry is “Not Active”. Moreover, the Ki result in test [1], in test [4] and in test [6] was “Not Active” in each case.
On to `CC[C@]1(O)C[C@H]2CN(CCc3c([nH]c4ccccc34)[C@@](C(=O)OC)(c3cc4c(cc3OC)N(C=O)[C@H]3[C@@](O)(C(=O)OC)[C@H](OC(C)=O)[C@]5(CC)C=CCN6CC[C@]43[C@@H]65)C2)C1` [VINCRISTINE], for which the IC50 result (on Nitric oxide synthase 1; in test [1]; in test [2]; in test [3]; in test [4]; in test [5]) was “Not Active” throughout. For the same compound, the IC50 entry in test [6] is “Not Active”. Further, the Ki entry in test [1], in test [4] and in test [6] was “Not Active” in each case.
On to `CSc1ccc(/C=C2/C(C)=C(CC(=O)O)c3cc(F)ccc32)cc1` [SULINDAC SULFIDE], for which the IC50 result (against Nitric oxide synthase 1; in test [1]; in test [2]; in test [3]; in test [4]; in test [5]) was “Not Active” each time. The half-maximal inhibitory concentration (IC50) entry in test [6] was “Not Active”. Further, the inhibitory constant (Ki) entry in test [1], in test [4] and in test [6] was “Not Active” throughout.
In the case of `CC(=O)[C@@]1(O)CC[C@H]2[C@@H]3C[C@H](C)C4=CC(=O)CC[C@]4(C)[C@H]3CC[C@@]21C`, the 50% inhibitory concentration (IC50) entry (against Nitric oxide synthase 1; in test [1]; in test [2]; in test [3]; in test [4]; in test [5]) was “Not Active” in each case. For the same compound, in test [6], the half-maximal inhibitory concentration (IC50) result is reported as “Not Active”. Also, the Ki result in test [1], in test [4] and in test [6] was “Not Active” throughout.
In the case of `Cc1noc(NS(=O)(=O)c2ccc(N)cc2)c1C` [SULFISOXAZOLE], the IC50 result (at Nitric oxide synthase 1; in test [1]; in test [2]; in test [3]; in test [4]; in test [5]) was “Not Active” each time. For the same compound, the IC50 result in test [6] is given as “Not Active”. Also, the Ki result in test [1], in test [4] and in test [6] was “Not Active” throughout.
As to `N[C@@H](Cc1ccc(O)c(O)c1)C(=O)O` [LEVODOPA], the 50% inhibitory concentration (IC50) entry (against Nitric oxide synthase 1; in test [1]; in test [2]; in test [3]; in test [4]; in test [5]) was “Not Active” each time. Also, the IC50 entry in test [6] is “Not Active”. Besides, the inhibition constant (Ki) entry in test [1], in test [4] and in test [6] was “Not Active” throughout.
On to `NS(=O)(=O)c1cc2c(cc1Cl)NC(C(Cl)Cl)NS2(=O)=O` (centres undefined) [TRICHLORMETHIAZIDE], for which the IC50 result (on Nitric oxide synthase 1; in test [1]; in test [2]; in test [3]; in test [4]; in test [5]) was “Not Active” throughout. Moreover, the half-inhibitory concentration (IC50) result in test [6] was “Not Active”. The Ki entry in test [1], in test [4] and in test [6] was “Not Active” throughout.
For the compound `Nc1c2c(nc3ccccc13)CCCC2` [TACRINE], the IC50 result (at Nitric oxide synthase 1; in test [1]; in test [2]; in test [3]; in test [4]; in test [5]) was “Not Active” each time. Further, the half-maximal inhibitory concentration (IC50) result in test [6] is “Not Active”. Moreover, the Ki entry in test [1], in test [4] and in test [6] was “Not Active” in each case.
For the compound `NC[C@H]1CC[C@H](C(=O)O)CC1` [TRANEXAMIC ACID], the IC50 entry (on Nitric oxide synthase 1; in test [1]; in test [2]; in test [3]; in test [4]; in test [5]) was “Not Active” in each case. Moreover, the half-inhibitory concentration (IC50) entry in test [6] was “Not Active”. Further, the Ki result in test [1], in test [4] and in test [6] was “Not Active” each time.
Regarding `CCOC(=O)N1CCC(=C2c3ccc(Cl)cc3CCc3cccnc32)CC1` [LORATADINE], the half-inhibitory concentration (IC50) entry (on Nitric oxide synthase 1; in test [1]; in test [2]; in test [3]; in test [4]; in test [5]) was “Not Active” each time. Also, the IC50 entry in test [6] is recorded as “Not Active”. The inhibition constant Ki entry in test [1], in test [4] and in test [6] was “Not Active” in each case.
Consider `c1ccc([C@H]2CN3CCSC3=N2)cc1` [LEVAMISOLE], for which the 50% inhibitory concentration (IC50) entry (at Nitric oxide synthase 1; in test [1]; in test [2]; in test [3]; in test [4]; in test [5]) was “Not Active” in each case. Moreover, the IC50 entry in test [6] was “Not Active”. The Ki result in test [1], in test [4] and in test [6] was “Not Active” in each case.
For the compound `CC(C)N1CCN(c2ccc(OCC3COC(Cn4cncn4)(c4ccc(Cl)cc4Cl)O3)cc2)CC1` (centres undefined) [TERCONAZOLE], the half-maximal inhibitory concentration (IC50) result at Nitric oxide synthase 1 was “Not Active”; in test [1], “Not Active”; in test [2], “Not Active”; in test [3], “Not Active”; in test [4] (read-out: IC50), 2230 nM; in test [5] it was “Not Active”. Further, the IC50 in test [6] (read-out: IC50) was found to be 24900 nM. The Ki result in test [1] was “Not Active”; in test [4] (read-out: Ki), 1480 nM; in test [6] (read-out: Ki), 6320 nM.
`CC[C@@H](CO)NC(=O)[C@@H]1C=C2c3cccc4[nH]cc(c34)C[C@H]2N(C)C1` [METHYLERGONOVINE]: the IC50 result is “Not Active” at Nitric oxide synthase 1; “Not Active” in test [1]; “Not Active” in test [2]; “Not Active” in test [3]; 2930 nM in test [4] (read-out: IC50); “Not Active” in test [5]. In addition, the IC50 result in test [6] was “Not Active”. For the same compound, the results for the inhibitory constant (Ki) entry in test [1], in test [4] (read-out: Ki) and in test [6] were “Not Active”, 1960 nM and “Not Active”, respectively.
On to SODIUM NITROPRUSSIDE, for which the IC50 result (against Nitric oxide synthase 1; in test [1]; in test [2]; in test [3]; in test [4]; in test [5]) was “Not Active” each time. Moreover, in test [6], the half-maximal inhibitory concentration (IC50) entry was “Not Active”. Besides, the Ki entry (at Nitric oxide synthase 1; in test [1]; in test [2]; in test [3]; in test [4]; in test [5]) was “Not Active” in each case. Moreover, in test [6], the Ki entry is “Not Active”.
Turning to `CO[C@H]1/C=C/O[C@@]2(C)Oc3c(C)c(O)c4c(O)c(c(/C=N/N5CCN(C)CC5)c(O)c4c3C2=O)NC(=O)/C(C)=C\C=C\[C@H](C)[C@H](O)[C@@H](C)[C@@H](O)[C@@H](C)[C@H](OC(C)=O)[C@@H]1C` [RIFAMPIN], the half-maximal inhibitory concentration (IC50) result (on Nitric oxide synthase 1; in test [1]; in test [2]; in test [3]; in test [4]; in test [5]) was “Not Active” each time. Moreover, the half-maximal inhibitory concentration (IC50) entry in test [6] is “Not Active”. Further, the inhibitory constant (Ki) result in test [1], in test [4] and in test [6] was “Not Active” in each case.

For the origin of these results see ChEMBL document CHEMBL1909046, “DrugMatrix in vitro pharmacology data”.
